Counter-ions that a name gives are not always drawn. Like-named read-outs stand apart in the source and are kept apart here.
What was measured:
mice = assay: Acute toxicity, mice perorally
[1] = system: passive cutaneous anaphylaxis; assay: Passive cutaneous anaphylaxis model in rats; type: in vivo, rat; conditions: dose 3 mg/kg
Description: (Rukovodstvo po eksperimental'nomu izucheniyu novykh farmakologicheskikh veshchestv [Manual on experimental study of new pharmacological substances], Moscow, 2005, p. 511)

[2] = system: isolated guinea pig ileum (spasmogenic effect of histamine); assay: Isolated guinea pig ileum, suppression of the spasmogenic effect of histamine; type: cell-based; conditions: histamine spasm, read-out: Antihistaminic activity, isolated ileum of guinea pig, IC50
Description: Study of the antihistaminic activity of the compounds on which a claim is made was done using known methodologies (Rukovodstvo po eksperimental'nomu izucheniyu novykh farmakologicheskikh veshchestv [Manual on experimental study of new pharmacological substances], Moscow, 2005, p. 489) on isolated guinea pig ileum (suppression of the spasmogenic effect of histamine) and on anesthetized guinea pigs (antagonism in relation to the bronchoconstrictor effect of histamine). In tests on intact animals, substances were administered intravenously (5 minutes before the administration of histamine) and orally (2 hours before the beginning of the study).

[3] = system: H1-histamine receptors (bronchoconstrictor effect of histamine); assay: Anesthetized guinea pigs, antagonism of the bronchoconstrictor effect of histamine (histamine bronchospasm model); type: in vivo, guinea pig; conditions: for ED50: Cavia porcellus; for Duration of effective blockade of H1-histamine receptors: histamine bronchospasm model, oral dose of 3 mg/kg
Method: In tests on intact animals, substances were administered intravenously (5 minutes before the administration of histamine) and orally (2 hours before the beginning of the study).

histamine-induced itch = assay: Itching induced by instillation of histamine solution into the eye of conscious guinea pigs; type: in vivo, guinea pig; conditions: 3 mg/kg administered orally
Description: (Rukovodstvo po […] [Manual on experimental study of new pharmacological substances], Moscow, 2005, p. 511)

[4] = pH of aqueous solution of salts; type: physicochemical
[5] = anesthetized guinea pigs, intravenous, 5 minutes before histamine
[6] = anesthetized guinea pigs, orally 2 hours before the study

Compound	Acute toxicity, LD50 (mice) [mg/kg]	IC50 [2] [µM]	Antihistaminic activity, guinea pigs in vivo, intravenous administration, ED50 [3, 5] [mg/kg]	Antihistaminic activity, guinea pigs in vivo, peroral administration, ED50 [3, 6] [mg/kg]	other results
Cl.Cl.Cn1c(=O)c2c(ncn2CC(O)CN2CCN(C(c3ccccc3)c3ccc(Cl)cc3)CC2)n(C)c1=O (racemic) [II-i]	>1000.0				
Cl.Cl.Cn1c(=O)c2c(ncn2CC(O)CN2CCN(C(c3ccc(F)cc3)c3ccc(F)cc3)CC2)n(C)c1=O (racemic) [II-j]	>1000.0				
O=C(O)COCCN1CCN(C(c2ccccc2)c2ccc(Cl)cc2)CC1 (stereo not drawn) [Cetirizine, reference compound]					Antiallergic effect, passive cutaneous anaphylactic model [1]: moderate and similar antiallergic effect; IC50 ([2]; Cavia porcellus): 0.127 µM; ED50 ([3]; po, anesthetized guinea pigs, orally 2 hours before the study, read-out: Antihistaminic activity, guinea pigs in vivo, peroral administration, ED50): 0.2 mg/kg; ED50 ([3]; anesthetized guinea pigs, intravenous, 5 minutes before histamine, read-out: Antihistaminic activity, guinea pigs in vivo, intravenous administration, ED50): 0.07 mg/kg; Duration of effective blockade of H1-histamine receptors [3]: 48 h; Duration of the protective effect in the histamine-induced itch model (histamine-induced itch): diminishes significantly after 48 hours and disappears altogether after 72 hours
Cn1c(=O)[nH]c(=O)c2c1ncn2CCCCN1CCN(C(c2ccccc2)c2ccccc2)CC1 [Dihydrochloride, 7-/4-(4-benzhydrylpiperazinyl-1)butyl/-3-methylxanthine]					pH of aqueous solution [4]: 2.45
Cn1c(=O)n(CC(O)CN2CCN(C(c3ccccc3)c3ccc(Cl)cc3)CC2)c(=O)c2c1ncn2Cc1ccccc1 (stereo not drawn) [I-aa, 1-[2-oxy-3-(4^1-chlorbenzhydryl-4-piperazinyl-1)propyl]-3-methyl-7-benzylxanthine]		0.536			
Cl.Cl.Cn1c(=O)n(CCCN2CCN(C(c3ccccc3)c3ccccc3)CC2)c(=O)c2c1ncn2Cc1ccccc1 [I-b]	>800.0	0.126	0.3		
Cl.Cl.Cn1c(=O)n(CCCN2CCN(C(c3ccccc3)c3ccc(Cl)cc3)CC2)c(=O)c2c1ncn2Cc1ccccc1 (stereo not drawn) [I-c]	400.0	0.133			
Cl.Cl.Cn1c(=O)n(CCCN2CCN(C(c3ccc(F)cc3)c3ccc(F)cc3)CC2)c(=O)c2c1ncn2Cc1ccccc1 [I-d]	>250.0	0.114	0.6	3.0	
Cn1c(=O)n(CCCN2CCN(C(c3ccccc3)c3ccccc3)CC2)c(=O)c2c1ncn2Cc1ccc(F)cc1 [I-e]		0.43			
Cn1c(=O)n(CCCN2CCN(C(c3ccc(F)cc3)c3ccc(F)cc3)CC2)c(=O)c2c1ncn2Cc1ccc(F)cc1 [I-f]		0.514			
Cn1c(=O)n(CCCN2CCN(C(c3ccccc3)c3ccccc3)CC2)c(=O)c2c1ncn2CC(=O)O [I-g]		0.244			
Cl.Cl.Cn1c(=O)n(CCCCN2CCN(C(c3ccccc3)c3ccccc3)CC2)c(=O)c2c1ncn2Cc1ccccc1 [I-i]	400.0	0.111	0.2	0.3	
Cl.Cl.Cn1c(=O)n(CCCCN2CCN(C(c3ccccc3)c3ccccc3)CC2)c(=O)c2c1ncn2Cc1ccc(F)cc1 [I-j]	400.0	0.227			
Cl.Cl.Cn1c(=O)n(CCCCN2CCN(C(c3ccc(F)cc3)c3ccc(F)cc3)CC2)c(=O)c2c1ncn2Cc1ccc(F)cc1 [I-k]	400.0	0.267			
Cl.Cl.Cn1c(=O)n(CCCCN2CCN(C(c3ccc(F)cc3)c3ccc(F)cc3)CC2)c(=O)c2c1ncn2Cc1ccccc1 [I-l]	>1000.0	0.185	0.5	0.5	
Cl.Cl.Cn1c(=O)n(CCCCCN2CCN(C(c3ccccc3)c3ccccc3)CC2)c(=O)c2c1ncn2Cc1ccccc1 [I-m]	>200.0	0.092			
Cl.Cl.Cn1c(=O)n(CCCCCN2CCN(C(c3ccc(F)cc3)c3ccc(F)cc3)CC2)c(=O)c2c1ncn2Cc1ccccc1 [I-n]	250	0.253	1.2	3.0	

Compound	Acute toxicity, LD50 (mice) [mg/kg]	IC50 [2] [µM]	Antihistaminic activity, guinea pigs in vivo, intravenous administration, ED50 [3, 5] [mg/kg]	Antihistaminic activity, guinea pigs in vivo, peroral administration, ED50 [3, 6] [mg/kg]	other results
Cl.Cl.Cn1c(=O)n(CCN2CCN(C(c3ccc(F)cc3)c3ccc(F)cc3)CC2)c(=O)c2[nH]cnc21 [I-p]		0.192	1.5		
Cl.Cl.Cn1c(=O)n(CCCN2CCN(C(c3ccccc3)c3ccccc3)CC2)c(=O)c2[nH]cnc21 [I-q]	>1000.0	0.042	0.4		
Cl.Cl.Cn1c(=O)n(CCCN2CCN(C(c3ccc(F)cc3)c3ccc(F)cc3)CC2)c(=O)c2[nH]cnc21 [I-r]	>1000.0	0.076		>3.0	
Cl.Cl.Cn1c(=O)n(CCCCN2CCN(C(c3ccccc3)c3ccccc3)CC2)c(=O)c2[nH]cnc21 [I-s, 1-[4-(benzhydryl-4-piperazinyl-1)butyl]-3-methylxanthine dihydrochloride]	>750.0	0.026	0.2	0.3	
Cl.Cl.Cn1c(=O)n(CCCCN2CCN(C(c3ccccc3)c3ccc(Cl)cc3)CC2)c(=O)c2[nH]cnc21 (stereo not drawn) [I-t]	>1000.0	0.104	0.3		
Cl.Cl.Cn1c(=O)n(CCCCN2CCN(C(c3ccc(F)cc3)c3ccc(F)cc3)CC2)c(=O)c2[nH]cnc21 [I-u]	>1000.0	0.051	0.7	>3.0	
Cl.Cl.Cn1cnc2c1c(=O)n(CCCCN1CCN(C(c3ccccc3)c3ccccc3)CC1)c(=O)n2C [I-v]	>1000.0	0.032	0.2	>1.5	
Cn1cnc2c1c(=O)n(CC(O)CN1CCN(C(c3ccccc3)c3ccccc3)CC1)c(=O)n2C (stereo not drawn) [I-x, 1-[2-oxy-3-(benzhydryl-4-piperazinyl-1)propyl]-3,7-dimethylxanthine dihydrochloride]		1.27			
Cn1cnc2c1c(=O)n(CC(O)CN1CCN(C(c3ccccc3)c3ccc(Cl)cc3)CC1)c(=O)n2C (stereo not drawn) [I-y, 1-[2-oxy-3-(4^1-chlorbenzhydryl-4-piperazinyl-1)propyl]-3,7-dimethylxanthine]		0.123			
Cn1c(=O)n(CC(O)CN2CCN(C(c3ccccc3)c3ccccc3)CC2)c(=O)c2c1ncn2Cc1ccccc1 (stereo not drawn) [I-z, 1-[2-oxy-3-(benzhydryl-4-piperazinyl-1)-propyl]-3-methyl-7-benzylxanthine]		0.524			
Cl.Cl.Cn1c(=O)c2c(ncn2CCCN2CCN(C(c3ccccc3)c3ccccc3)CC2)n(C)c1=O [II-d]	>1000.0	0.012	0.05		
Cl.Cl.Cn1c(=O)[nH]c(=O)c2c1ncn2CCCN1CCN(C(c2ccccc2)c2ccccc2)CC1 [II-e]	900.0	0.019	0.1		
Cl.Cl.Cn1c(=O)c2c(ncn2CCCCN2CCN(C(c3ccccc3)c3ccccc3)CC2)n(C)c1=O [II-f]	750.0	0.017	0.1	<1.5	
Cl.Cl.Cn1c(=O)c2c(ncn2CC(O)CN2CCN(C(c3ccccc3)c3ccccc3)CC2)n(C)c1=O (stereo not drawn) [II-h, 1,3-dimethyl-7-[2-oxy-3-(benzhydryl-4-piperazinyl-1)propyl]xanthine dihydrochloride]	>1000.0		0.1	2.0	
CCOC(=O)N1CCC(=C2c3ccc(Cl)cc3CCc3cccnc32)CC1 [Loratadine, reference compound]					IC50 ([2]; Cavia porcellus): 0.472 µM; ED50 ([3]; iv, read-out: Antihistaminic activity, guinea pigs in vivo, intravenous administration, ED50): 0.3 mg/kg; ED50 ([3]; po, read-out: Antihistaminic activity, guinea pigs in vivo, peroral administration, ED50): 0.9 mg/kg; Duration of effective blockade of H1-histamine receptors [3]: 18 h
Cn1c(=O)[nH]c(=O)c2c1ncn2CCCCN1CCN(C(c2ccccc2)c2ccccc2)CC1 [Oxalate, 7-/4-(4-benzhydrylpiperazinyl-1)butyl/-3-methylxanthine]					pH of aqueous solution [4]: 3.44
